According to PMC9590610 (Chemical biology & drug design, 2020):

B1: GST-FAK-NT (FERM) (domain or fragment, UniProt Q05397 35-355, looked up)
chain: RVLKVFHYFESNSEPTTWASIIRHGDATDVRGIIQKIVDSHKVKHVACYGFRLSHLRSEEVHWLHVDMGVSSVREKYELAHPPEEWKYELRIRYLPKGFLNQFTEDKPTLNFFYQQVKSDYMLEIADQVDQEIALKLGCLEIRRSYWEMRGNALEKKSNYEVLEKDVGLKRFFPKSLLDSVKAKTLRKLIQQTFRQFANLNREESILKFFEILSPVYRFDKECFKCALGSSWIISVELAIGPEEGISYLTDKGCNPTHLADFTQVQTIQYSNSEDKDRKGMLQLKIAGAPEPLTVTAPSLTIAENMADLIDGYCRLVNGTS

Assays:
[1] = target: FAK (focal adhesion kinase) FERM domain (Homo sapiens, UniProt Q05397); type: binding
[2] = target: Recombinant HER2-ICD (Intracellular Domain) (human, UniProt P04626 676-1255)

| IC50 [1] [nM] | Kd [2] [nM] | Molecule |
| --- | --- | --- |
| 170 |  | Cc1nc(SC(C)C(=O)Nc2ccc3[nH]c(=O)[nH]c3c2)n(C2CCCC2)c1C (racemic) [VS4, (rac)-2-((1-cyclopentyl-4,5-dimethyl-1H-imidazol-2-yl)thio)-N-(2-oxo-2,3-dihydro-1H-benzo[d]imidazol-5-yl)propanamide] |
| 187 |  | CC(Oc1ccc(C(=O)NCCN2CCN(C)CC2c2ccccc2)cn1)c1ccccc1 (racemic) [VS14, (rac)-N-(2-(4-methyl-2-phenylpiperazin-1-yl)ethyl)-6-(1-phenylethoxy)nicotinamide] |
|  | 571 | B1 |
